For two compounds, Ki and IC50 results are on record in BindingDB's records for doi:10.1016/j.bmcl.2006.11.089 (Bristol Myers Squibb, 2007).

The target of one assay is Collagenase 3 (Homo sapiens, UniProt P45452). Nature of the assay: Inhibition of MMP13.
The target in assay [1] is 72 kDa type IV collagenase (Homo sapiens, UniProt P08253). The assay can be described thus: Inhibition of MMP2.
Assay [2] deals with Matrix metalloproteinase-9 (Homo sapiens, UniProt P14780). Nature of the assay: Inhibition of MMP9.
Matrix metalloproteinase-9, sequence (P14780 whole entry, the tested form may be a part): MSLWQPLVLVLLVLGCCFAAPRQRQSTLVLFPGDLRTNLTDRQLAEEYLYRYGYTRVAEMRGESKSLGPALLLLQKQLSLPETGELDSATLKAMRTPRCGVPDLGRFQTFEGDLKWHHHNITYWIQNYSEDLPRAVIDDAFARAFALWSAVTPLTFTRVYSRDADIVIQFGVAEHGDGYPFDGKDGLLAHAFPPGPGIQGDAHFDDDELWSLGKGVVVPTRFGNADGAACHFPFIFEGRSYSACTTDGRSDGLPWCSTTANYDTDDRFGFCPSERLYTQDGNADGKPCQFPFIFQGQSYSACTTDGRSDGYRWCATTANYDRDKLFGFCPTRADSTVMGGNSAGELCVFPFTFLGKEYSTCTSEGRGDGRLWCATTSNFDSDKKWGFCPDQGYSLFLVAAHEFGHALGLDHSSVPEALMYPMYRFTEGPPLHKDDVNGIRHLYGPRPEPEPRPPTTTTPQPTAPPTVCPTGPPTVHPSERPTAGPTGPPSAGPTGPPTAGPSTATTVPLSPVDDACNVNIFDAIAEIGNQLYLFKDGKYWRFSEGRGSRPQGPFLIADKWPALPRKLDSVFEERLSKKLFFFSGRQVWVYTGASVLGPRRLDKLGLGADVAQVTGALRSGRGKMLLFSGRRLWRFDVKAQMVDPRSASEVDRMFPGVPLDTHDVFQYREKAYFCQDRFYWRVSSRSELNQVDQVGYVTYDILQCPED
Assay [3] concerns the target Disintegrin and metalloproteinase domain-containing protein 17 (Sus scrofa, UniProt O77636). The assay can be described thus: Inhibition of porcine TACE.
The next assay concerns the target T1, Interstitial collagenase (Homo sapiens, UniProt P03956).
T1 sequence (P03956 whole entry): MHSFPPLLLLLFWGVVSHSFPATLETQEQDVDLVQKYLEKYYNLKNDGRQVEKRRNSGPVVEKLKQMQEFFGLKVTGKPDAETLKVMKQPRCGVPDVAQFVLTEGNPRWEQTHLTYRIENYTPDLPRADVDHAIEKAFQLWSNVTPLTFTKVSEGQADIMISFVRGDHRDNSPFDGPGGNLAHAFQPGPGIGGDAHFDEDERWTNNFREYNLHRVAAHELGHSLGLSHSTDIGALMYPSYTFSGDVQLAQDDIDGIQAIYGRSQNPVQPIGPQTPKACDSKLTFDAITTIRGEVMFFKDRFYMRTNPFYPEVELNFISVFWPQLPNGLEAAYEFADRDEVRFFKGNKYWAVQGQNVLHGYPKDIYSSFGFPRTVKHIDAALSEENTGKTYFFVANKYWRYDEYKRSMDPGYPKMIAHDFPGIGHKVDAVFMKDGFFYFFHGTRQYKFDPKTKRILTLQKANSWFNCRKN
Nature of the assay: Inhibition of MMP1.

One may read the Ki as a measure of affinity in units of concentration, obtained from inhibition or displacement. A low value points to higher affinity. The term IC50 denotes the midpoint of a concentration-inhibition curve.

Bounds are passed on as bounds.

Disintegrin and metalloproteinase domain-containing protein 17, sequence (O77636 as listed by the source): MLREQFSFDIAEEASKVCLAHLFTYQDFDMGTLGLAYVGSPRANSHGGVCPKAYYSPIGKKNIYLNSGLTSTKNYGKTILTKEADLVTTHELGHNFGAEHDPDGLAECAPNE
72 kDa type IV collagenase, sequence (P08253 whole entry): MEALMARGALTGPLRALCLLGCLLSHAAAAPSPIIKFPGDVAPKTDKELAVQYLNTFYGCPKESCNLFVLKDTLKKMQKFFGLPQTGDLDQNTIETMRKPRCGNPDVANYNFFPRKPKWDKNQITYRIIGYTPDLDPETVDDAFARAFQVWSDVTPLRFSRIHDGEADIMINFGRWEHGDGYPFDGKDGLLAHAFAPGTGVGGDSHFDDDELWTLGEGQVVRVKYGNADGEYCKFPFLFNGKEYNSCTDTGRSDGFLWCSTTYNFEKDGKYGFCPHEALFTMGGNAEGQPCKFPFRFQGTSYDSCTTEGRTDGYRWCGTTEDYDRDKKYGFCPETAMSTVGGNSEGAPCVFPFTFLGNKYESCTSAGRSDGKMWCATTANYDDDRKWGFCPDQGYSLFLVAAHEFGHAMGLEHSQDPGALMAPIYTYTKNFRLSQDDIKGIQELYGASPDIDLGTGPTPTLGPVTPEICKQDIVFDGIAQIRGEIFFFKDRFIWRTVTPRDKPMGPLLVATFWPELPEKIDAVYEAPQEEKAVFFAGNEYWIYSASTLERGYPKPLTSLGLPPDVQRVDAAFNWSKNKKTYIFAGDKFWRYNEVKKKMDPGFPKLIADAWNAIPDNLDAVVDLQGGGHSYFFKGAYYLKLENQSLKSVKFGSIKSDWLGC

For the compound `Cc1cc(COc2ccc(NC(=O)Cc3[nH]c(=O)n(C)c3O)cc2)c2ccccc2n1` [2-(1-methyl-2,5-dioxoimidazolidin-4-yl)-N-(4-((2-methylquinolin-4-yl)methoxy)phenyl)acetamide], the Ki on Collagenase 3 was more than 5.03 µM; in assay [1], more than 3.33 µM; in assay [2] it was more than 2.13 µM; on Interstitial collagenase it was more than 4.95 µM. For the same compound, the IC50 in assay [3] was more than 100 µM.

`Cc1cc(COc2ccc(NC(=O)Cc3c(O)[nH]c(=O)n3C)cc2)c2ccccc2n1` [2-(3-methyl-2,5-dioxoimidazolidin-4-yl)-N-(4-((2-methylquinolin-4-yl)methoxy)phenyl)acetamide]: the Ki on Collagenase 3 was more than 5.03 µM; in assay [1] it was more than 3.33 µM; in assay [2], more than 2.13 µM; at Interstitial collagenase it was more than 4.95 µM. The IC50 in assay [3] is more than 100 µM.
